From patent publication US6673791B2, “Non-nucleoside reverse transcriptase inhibitors” (Boehringer Ingelheim (Canada) Ltd., priority 2001, dated 2004)

Tested on: K103N/Y181C (HIV-1 double mutant strain)
Test: EC50 assay, K103N/Y181C strain
Type: cell-based
Details: Human immunodeficiency virus 1, read-out: EC50 K103N/Y181C (nM), K103N/Y181C double mutant
From the text: (§1) Reverse TranscriptASE (RT) Assays
(§2) The assays are as described in WO 01/96338A1, the contents of which are hereby incorporated herein. The results are listed in Tables 8 as IC50(nM) and EC50(nM).

Compound | EC50 [nM]
CCN1c2ncc(CCOc3ccc(/C=C/C(=O)O)c4ccccc34)cc2C(=O)Nc2c(C)ccnc21 [Entry 1031] | < 100
CCN1c2ncc(CCOc3ccc(CC(=O)O)c4c3CCCC4)cc2C(=O)N(C)c2ccc(F)nc21 [Entry 5008] | < 100
CCN1c2ncc(CCOc3ccc(CC(=O)O)c4c3CCCC4)cc2C(=O)N(C)c2ccc(Cl)nc21 [Entry 5007] | < 100
C=C(CC(=O)O)c1ccc(OCCc2cnc3c(c2)C(=O)N(C)c2cccnc2N3CC)c2ccccc12 [Entry 1049] | 100 to 1000
CCN1c2ncc(CCOc3ccc(/C=C/C(=O)O)c4ccccc34)cc2C(=O)Nc2c(C)cc(F)nc21 [Entry 1034] | < 100
CCN1c2ncc(CCOc3ccc4cc(CC(=O)NN)ccc4c3)cc2C(=O)N(C)c2cccnc21 [Entry 3005] | < 100
CCN1c2ncc(CCOc3ccc4cc(C(=O)NC(C)(C)C(=O)O)ccc4c3)cc2C(=O)N(C)c2cccnc21 [Entry 3003] | 100 to 1000

Target: T1, Y188L mutant RT (HIV-1 RT) (Human immunodeficiency virus type 1 group M subtype B, UniProt P03366, Y787L)
T1 construct: mutations that occur in the reverse transcriptase segment of the pol gene
Test: biochemical
Details: IC50 Y188L (nM)
From the text: (§3) Based upon testing of these compounds, as described below, it is known that they inhibit the RNA-dependent DNA polymerase activity of HIV-1 RT. […] Utilising the Reverse Transcriptase (RT) Assay described below, compounds can be tested for their ability to inhibit the RNA-dependent DNA polymerase activity of HIV-1 RT. Certain specific compounds described in the Examples which appear below, were so tested. The results of this testing appear in Table 4 as IC50 (nM) and Table 5 as EC50 (nM).
as §1, §2

Compound | IC50 [nM]
CCN1c2ncc(CCOc3ccc(/C=C/C(=O)O)c4ccccc34)cc2C(=O)Nc2c(C)ccnc21 [Entry 1031] | > 1000
CCN1c2ncc(CCOc3ccc(CC(=O)O)c4c3CCCC4)cc2C(=O)N(C)c2ccc(F)nc21 [Entry 5008] | > 1000
CCN1c2ncc(CCOc3ccc(CC(=O)O)c4c3CCCC4)cc2C(=O)N(C)c2ccc(Cl)nc21 [Entry 5007] | 100 to 1000
C=C(CC(=O)O)c1ccc(OCCc2cnc3c(c2)C(=O)N(C)c2cccnc2N3CC)c2ccccc12 [Entry 1049] | > 1000
CCN1c2ncc(CCOc3ccc(/C=C/C(=O)O)c4ccccc34)cc2C(=O)Nc2c(C)cc(F)nc21 [Entry 1034] | > 1000
CCN1c2ncc(CCOc3ccc4cc(CC(=O)NN)ccc4c3)cc2C(=O)N(C)c2cccnc21 [Entry 3005] | 100 to 1000
CCN1c2ncc(CCOc3ccc4cc(C(=O)NC(C)(C)C(=O)O)ccc4c3)cc2C(=O)N(C)c2cccnc21 [Entry 3003] | > 1000

Target: T2, K103N/Y181C double mutant RT (HIV-1 RT) (Human immunodeficiency virus type 1 group M subtype B, UniProt P03366, K702N/Y780C)
T2 construct: mutations that occur in the reverse transcriptase segment of the pol gene
Test: biochemical
Details: not given
From the text: as §3, §1, §2

Compound | IC50 [nM]
CCN1c2ncc(CCOc3ccc(/C=C/C(=O)O)c4ccccc34)cc2C(=O)Nc2c(C)ccnc21 [Entry 1031] | 100 to 1000
CCN1c2ncc(CCOc3ccc(CC(=O)O)c4c3CCCC4)cc2C(=O)N(C)c2ccc(F)nc21 [Entry 5008] | 100 to 1000
CCN1c2ncc(CCOc3ccc(CC(=O)O)c4c3CCCC4)cc2C(=O)N(C)c2ccc(Cl)nc21 [Entry 5007] | 100 to 1000
C=C(CC(=O)O)c1ccc(OCCc2cnc3c(c2)C(=O)N(C)c2cccnc2N3CC)c2ccccc12 [Entry 1049] | 100 to 1000
CCN1c2ncc(CCOc3ccc(/C=C/C(=O)O)c4ccccc34)cc2C(=O)Nc2c(C)cc(F)nc21 [Entry 1034] | 100 to 1000
CCN1c2ncc(CCOc3ccc4cc(CC(=O)NN)ccc4c3)cc2C(=O)N(C)c2cccnc21 [Entry 3005] | 100 to 1000
CCN1c2ncc(CCOc3ccc4cc(C(=O)NC(C)(C)C(=O)O)ccc4c3)cc2C(=O)N(C)c2cccnc21 [Entry 3003] | 100 to 1000

Target: T3, V106A mutant RT (HIV-1 RT) (Human immunodeficiency virus type 1 group M subtype B, UniProt P03366, V705A)
T3 construct: mutations that occur in the reverse transcriptase segment of the pol gene
Test: biochemical
Details: IC50 V106A (nM)
From the text: as §3, §1, §2

Compound | IC50 [nM]
CCN1c2ncc(CCOc3ccc(/C=C/C(=O)O)c4ccccc34)cc2C(=O)Nc2c(C)ccnc21 [Entry 1031] | 100 to 1000
CCN1c2ncc(CCOc3ccc(CC(=O)O)c4c3CCCC4)cc2C(=O)N(C)c2ccc(F)nc21 [Entry 5008] | > 1000
CCN1c2ncc(CCOc3ccc(CC(=O)O)c4c3CCCC4)cc2C(=O)N(C)c2ccc(Cl)nc21 [Entry 5007] | 100 to 1000
C=C(CC(=O)O)c1ccc(OCCc2cnc3c(c2)C(=O)N(C)c2cccnc2N3CC)c2ccccc12 [Entry 1049] | > 1000
CCN1c2ncc(CCOc3ccc(/C=C/C(=O)O)c4ccccc34)cc2C(=O)Nc2c(C)cc(F)nc21 [Entry 1034] | < 100
CCN1c2ncc(CCOc3ccc4cc(CC(=O)NN)ccc4c3)cc2C(=O)N(C)c2cccnc21 [Entry 3005] | < 100
CCN1c2ncc(CCOc3ccc4cc(C(=O)NC(C)(C)C(=O)O)ccc4c3)cc2C(=O)N(C)c2cccnc21 [Entry 3003] | 100 to 1000

Target: T4, WT RT (HIV-1 RT) (Human immunodeficiency virus type 1 group M subtype B, UniProt P03366)
T4 construct: mutations that occur in the reverse transcriptase segment of the pol gene
Test: biochemical
Details: not given
From the text: as §3, §1, §2

Compound | IC50 [nM]
CCN1c2ncc(CCOc3ccc(/C=C/C(=O)O)c4ccccc34)cc2C(=O)Nc2c(C)ccnc21 [Entry 1031] | < 100
CCN1c2ncc(CCOc3ccc(CC(=O)O)c4c3CCCC4)cc2C(=O)N(C)c2ccc(F)nc21 [Entry 5008] | < 100
CCN1c2ncc(CCOc3ccc(CC(=O)O)c4c3CCCC4)cc2C(=O)N(C)c2ccc(Cl)nc21 [Entry 5007] | < 100
C=C(CC(=O)O)c1ccc(OCCc2cnc3c(c2)C(=O)N(C)c2cccnc2N3CC)c2ccccc12 [Entry 1049] | < 100
CCN1c2ncc(CCOc3ccc(/C=C/C(=O)O)c4ccccc34)cc2C(=O)Nc2c(C)cc(F)nc21 [Entry 1034] | < 100
CCN1c2ncc(CCOc3ccc4cc(CC(=O)NN)ccc4c3)cc2C(=O)N(C)c2cccnc21 [Entry 3005] | < 100
CCN1c2ncc(CCOc3ccc4cc(C(=O)NC(C)(C)C(=O)O)ccc4c3)cc2C(=O)N(C)c2cccnc21 [Entry 3003] | < 100

Tested on: WT RT (HIV-1 wild type strain)
Test: EC50 assay, WT RT strain
Type: cell-based
Details: Human immunodeficiency virus 1, read-out: EC50 WT RT (nM)
From the text: as §1, §2

Compound | EC50 [nM]
CCN1c2ncc(CCOc3ccc(/C=C/C(=O)O)c4ccccc34)cc2C(=O)Nc2c(C)ccnc21 [Entry 1031] | < 100
CCN1c2ncc(CCOc3ccc(CC(=O)O)c4c3CCCC4)cc2C(=O)N(C)c2ccc(F)nc21 [Entry 5008] | < 100
CCN1c2ncc(CCOc3ccc(CC(=O)O)c4c3CCCC4)cc2C(=O)N(C)c2ccc(Cl)nc21 [Entry 5007] | < 100
C=C(CC(=O)O)c1ccc(OCCc2cnc3c(c2)C(=O)N(C)c2cccnc2N3CC)c2ccccc12 [Entry 1049] | < 100
CCN1c2ncc(CCOc3ccc(/C=C/C(=O)O)c4ccccc34)cc2C(=O)Nc2c(C)cc(F)nc21 [Entry 1034] | < 100
CCN1c2ncc(CCOc3ccc4cc(CC(=O)NN)ccc4c3)cc2C(=O)N(C)c2cccnc21 [Entry 3005] | < 100
CCN1c2ncc(CCOc3ccc4cc(C(=O)NC(C)(C)C(=O)O)ccc4c3)cc2C(=O)N(C)c2cccnc21 [Entry 3003] | < 100
